# Test results published in US8952024B2, “Herbicidal pyrimidone derivatives” (E I du Pont de Nemours and Company, priority 2009, dated 2015).
# Assays:
# Type in all cases: in vivo
# [1] = tested on: Italian ryegrass (Lolium multiflorum); experiment: Test B pre-/postemergence plant response; details: Postemergence
# Method in brief: (§1)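 Visually scored on a 0 to 100 scale after 13 to 15 days in greenhouse versus controls. Treatments were preemergence on seeded loam/sand soil and postemergence on 1- to 4-leaf plants.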
# [2] = tested on: Surinam grass (Brachiaria decumbens); experiment: Test B pre-/postemergence plant response; details: Postemergence
# Method in brief: as §1
# [3] = tested on: bermudagrass (Cynodon dactylon); experiment: Test B pre-/postemergence plant response; details: Postemergence
# Method in brief: as §1
# [4] = tested on: blackgrass (Alopecurus myosuroides); experiment: Test B pre-/postemergence plant response; details: Postemergence
# Method in brief: as §1
# [5] = tested on: cocklebur (Xanthium strumarium); experiment: Test B pre-/postemergence plant response; details: Postemergence
# Method in brief: as §1
# corn (Zea mays) = experiment: Test B pre-/postemergence plant response; details: Postemergence
# Method in brief: as §1
# [6] = tested on: morningglory (Ipomoea coccinea); experiment: Test B pre-/postemergence plant response; details: Postemergence
# Method in brief: as §1
# [7] = tested on: ragweed (common ragweed, Ambrosia elatior); experiment: Test B pre-/postemergence plant response; details: Postemergence
# Method in brief: as §1
# soybean (Glycine max) = experiment: Test B pre-/postemergence plant response; details: Postemergence
# Method in brief: as §1
# [8] = tested on: barnyardgrass (Echinochloa crus-galli); experiment: Test B flooded paddy test; details: for Plant response rating, Flood, Barnyardgrass: 250 g ai/ha, flooded paddy test, visual rating on 0 to 100 scale (0 no effect, 100 complete control) after 13 to 15 days; for Plant response rating, Barnyardgrass: Flood (flooded paddy test), 13 to 15 days
# Method in brief: (§2)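 Visual scores run from 0 (no effect) to 100 (complete control), assigned by comparison with controls 13 to 15 days after treatment. Test compounds went straight into water standing 3 cm above the soil, around plants at the 2-leaf stage kept in a greenhouse.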
# [9] = tested on: ducksalad (Heteranthera limosa); experiment: Test B flooded paddy test; details: for Plant response rating, Flood, Ducksalad: 250 g ai/ha, flooded paddy test, visual rating on 0 to 100 scale (0 no effect, 100 complete control) after 13 to 15 days; for Plant response rating, Ducksalad: Flood (flooded paddy test), 13 to 15 days
# Method in brief: as §2
# rice (Oryza sativa) = experiment: Test B flooded paddy test; details: for Plant response rating, Flood, Rice: 250 g ai/ha, flooded paddy test, visual rating on 0 to 100 scale (0 no effect, 100 complete control) after 13 to 15 days; for Plant response rating, Rice: Flood (flooded paddy test), 13 to 15 days
# Method in brief: as §2
# [10] = tested on: umbrella sedge (Cyperus difformis); experiment: Test B flooded paddy test; details: for Plant response rating, Flood, Sedge, Umbrella: 250 g ai/ha, flooded paddy test, visual rating on 0 to 100 scale (0 no effect, 100 complete control) after 13 to 15 days; for Plant response rating, Sedge, Umbrella: Flood (flooded paddy test), 13 to 15 days
# Method in brief: as §2
# [11] = 31 g ai/ha, 0 to 100 scale (0 no effect, 100 complete control)
# [12] = 62 g ai/ha, scale 0 to 100 (0 no effect, 100 complete control)
# [13] = 250 g ai/ha, scale 0 to 100 (0 no effect, 100 complete control), 13 to 15 days
# [14] = 125 g ai/ha, scale 0 to 100 (0 no effect, 100 complete control)
# [15] = 62 g ai/ha, scale of 0 to 100 where 0 is no effect and 100 is complete control
# [16] = 125 g ai/ha, scale 0 (no effect) to 100 (complete control), 13 to 15 days
# [17] = 125 g ai/ha, scale 0 to 100, 0 is no effect, 100 is complete control
# [18] = Flood, 31 g ai/ha, scale 0 to 100 (0 no effect, 100 complete control)
structure (smiles),measurement,setting,value
COCCn1c(-c2cccc(C)c2)ncc(C(=O)C2=C(O)C3CCC(C3)C2=O)c1=O (stereo not shown) [Compound 233],"Plant response rating, Ryegrass, Italian",[1]; [11],30
same,"Plant response rating, Ryegrass, Italian",[1]; [12],45
same,"Plant response rating, Ryegrass, Italian",[1]; [13],60
same,"Plant response rating, Surinam Grass",[2]; [11],80
same,"Plant response rating, Surinam Grass",[2]; [12],85
same,"Plant response rating, Surinam Grass",[2]; [13],100
same,"Plant response rating, Bermudagrass",[3]; [11],95
same,"Plant response rating, Bermudagrass",[3]; [12],95
same,"Plant response rating, Bermudagrass",[3]; [14],100
same,"Plant response rating, Bermudagrass",[3]; [13],100
same,"Plant response rating, Blackgrass",[4]; [11],5
same,"Plant response rating, Blackgrass",[4]; [12],30
same,"Plant response rating, Blackgrass",[4]; [14],30
same,"Plant response rating, Blackgrass",[4]; [13],50
same,"Plant response rating, Cocklebur",[5]; [11],90
same,"Plant response rating, Cocklebur",[5]; [12],100
same,"Plant response rating, Cocklebur",[5]; [14],100
same,"Plant response rating, Cocklebur",[5]; [13],100
same,"Plant response rating, Corn",corn (Zea mays); [11],30
same,"Plant response rating, Corn",corn (Zea mays); [12],50
same,"Plant response rating, Corn",corn (Zea mays); [14],85
same,"Plant response rating, Corn",corn (Zea mays); [13],85
same,"Plant response rating, Morningglory",[6]; [11],65
same,"Plant response rating, Morningglory",[6]; [12],80
same,"Plant response rating, Morningglory",[6]; [14],98
same,"Plant response rating, Morningglory",[6]; [13],100
same,"Plant response rating, Ragweed",[7]; [11],80
same,"Plant response rating, Ragweed",[7]; [12],85
same,"Plant response rating, Ragweed",[7]; [13],98
same,"Plant response rating, Soybean",soybean (Glycine max); [11],98
same,"Plant response rating, Soybean",soybean (Glycine max); [12],98
same,"Plant response rating, Soybean",soybean (Glycine max); [13],100
same,"Plant response rating, Flood, Barnyardgrass",[8],65
same,"Plant response rating, Barnyardgrass",[8]; [15],20
same,"Plant response rating, Flood, Ducksalad",[9],100
same,"Plant response rating, Ducksalad",[9]; [15],100
same,"Plant response rating, Flood, Rice",rice (Oryza sativa),50
same,"Plant response rating, Rice",rice (Oryza sativa); [15],25
same,"Plant response rating, Flood, Sedge, Umbrella",[10],85
same,"Plant response rating, Sedge, Umbrella",[10]; [15],70
CCn1c(-c2ccccc2)ncc(C(=O)C2=C(O)C3CCC(C3)C2=O)c1=O (stereo not shown) [Compound 239],"Plant response rating, Ryegrass, Italian",[1]; [11],0
same,"Plant response rating, Ryegrass, Italian",[1]; [12],0
same,"Plant response rating, Ryegrass, Italian",[1]; [16],0
same,"Plant response rating, Ryegrass, Italian",[1]; [13],0
same,"Plant response rating, Surinam Grass",[2]; [11],25
same,"Plant response rating, Surinam Grass",[2]; [12],35
same,"Plant response rating, Surinam Grass",[2]; [16],45
same,"Plant response rating, Surinam Grass",[2]; [13],75
same,"Plant response rating, Bermudagrass",[3]; [11],95
same,"Plant response rating, Bermudagrass",[3]; [12],100
same,"Plant response rating, Bermudagrass",[3]; [16],100
same,"Plant response rating, Bermudagrass",[3]; [13],100
same,"Plant response rating, Blackgrass",[4]; [11],5
same,"Plant response rating, Blackgrass",[4]; [12],5
same,"Plant response rating, Blackgrass",[4]; [16],30
same,"Plant response rating, Blackgrass",[4]; [13],50
same,"Plant response rating, Cocklebur",[5]; [11],90
same,"Plant response rating, Cocklebur",[5]; [12],100
same,"Plant response rating, Cocklebur",[5]; [16],100
same,"Plant response rating, Cocklebur",[5]; [13],100
same,"Plant response rating, Corn",corn (Zea mays); [11],5
same,"Plant response rating, Corn",corn (Zea mays); [12],45
same,"Plant response rating, Corn",corn (Zea mays); [16],45
same,"Plant response rating, Corn",corn (Zea mays); [13],75
same,"Plant response rating, Morningglory",[6]; [11],95
same,"Plant response rating, Morningglory",[6]; [16],100
same,"Plant response rating, Morningglory",[6]; [13],100
same,"Plant response rating, Ragweed",[7]; [11],95
same,"Plant response rating, Ragweed",[7]; [12],98
same,"Plant response rating, Ragweed",[7]; [16],100
same,"Plant response rating, Ragweed",[7]; [13],100
same,"Plant response rating, Soybean",soybean (Glycine max); [11],70
same,"Plant response rating, Soybean",soybean (Glycine max); [12],95
same,"Plant response rating, Soybean",soybean (Glycine max); [16],98
same,"Plant response rating, Soybean",soybean (Glycine max); [13],98
same,"Plant response rating, Flood, Barnyardgrass",[8],15
same,"Plant response rating, Barnyardgrass",[8]; [15],0
same,"Plant response rating, Barnyardgrass",[8]; [17],0
same,Barnyardgrass plant response rating,[8]; [18],0
same,"Plant response rating, Flood, Ducksalad",[9],80
same,"Plant response rating, Ducksalad",[9]; [15],0
same,"Plant response rating, Ducksalad",[9]; [17],70
same,Ducksalad plant response rating,[9]; [18],0
same,"Plant response rating, Flood, Rice",rice (Oryza sativa),0
same,"Plant response rating, Rice",rice (Oryza sativa); [15],0
same,"Plant response rating, Rice",rice (Oryza sativa); [17],0
same,Rice plant response rating,rice (Oryza sativa); [18],0
same,"Plant response rating, Flood, Sedge, Umbrella",[10],75
same,"Plant response rating, Sedge, Umbrella",[10]; [15],0
same,"Plant response rating, Sedge, Umbrella",[10]; [17],40
same,"Sedge, Umbrella plant response rating",[10]; [18],0
